Literature values as cited in patent EP2266541A1, “Solid pharmaceutical composition comprising rivaroxaban” (Krka Tovarna Zdravil, D.D., Novo Mesto, priority 2009, dated 2010).

Conditions: stated in the background section, no method given

- solubility in water: about 7 mg/L
Structure (SMILES): O=C(NC[C@H]1CN(c2ccc(N3CCOCC3=O)cc2)C(=O)O1)c1ccc(Cl)s1 [Rivaroxaban, 5-chloro-N-{[(5S)-2-oxo-3-[4-(3-oxomorpholin-4-yl)phenyl]oxazolidin-5-yl]methyl}thiophene-2-carboxamide]
